For assay [1], the system named is Salmonella enterica serovar Enteritidis NCTC13349. The assay can be described thus: MIC, antibacterial specificity. It is filed as cell-based.
For assay [2], the system named is Staphylococcus aureus ATCC25923. As to the kind of experiment: MIC, antibacterial specificity. It is filed as cell-based.

SMILES strings stand for the structures. ≈ marks a conversion by molar mass, not a printed value.

Turning to `CCCOc1ccc(-c2cc(OCCN3CCNCC3)c3ccccc3n2)cc1` [PQQ4R, 4-(2-(piperazin-1-yl)ethoxy)-2-(4-propoxyphenyl) quinolone], the minimal inhibitory concentration (MIC) is 256 µg/mL (≈ 654 µM) in assay [1] and 50 µg/mL (≈ 128 µM) in assay [2].

For the origin of these results see article PMC5433425 (PeerJ, 2017).
